In article PMC5446775, “Interactions of 172 plant extracts with human organic anion transporter 1 (SLC22A6) and 3 (SLC22A8): a study on herb-drug interactions” (PeerJ, 2017):
Values joined by “and” are separate entries in the source; they are usually repeats but may differ in a detail not shown here. Equal entries are not always repeated.

Experiments:
[1] = test system: HEK-EV cells; assay: Time course of 6-CF uptake in HEK-EV cells; assay type: cell-based; design: unit not given beside the values
[2] = molecular target: T1, hOAT3 (Homo sapiens, UniProt Q8TCC7); assay: Time course and uptake kinetics of 6-CF in HEK-OAT3 cells
T1 sequence (Q8TCC7 1-542): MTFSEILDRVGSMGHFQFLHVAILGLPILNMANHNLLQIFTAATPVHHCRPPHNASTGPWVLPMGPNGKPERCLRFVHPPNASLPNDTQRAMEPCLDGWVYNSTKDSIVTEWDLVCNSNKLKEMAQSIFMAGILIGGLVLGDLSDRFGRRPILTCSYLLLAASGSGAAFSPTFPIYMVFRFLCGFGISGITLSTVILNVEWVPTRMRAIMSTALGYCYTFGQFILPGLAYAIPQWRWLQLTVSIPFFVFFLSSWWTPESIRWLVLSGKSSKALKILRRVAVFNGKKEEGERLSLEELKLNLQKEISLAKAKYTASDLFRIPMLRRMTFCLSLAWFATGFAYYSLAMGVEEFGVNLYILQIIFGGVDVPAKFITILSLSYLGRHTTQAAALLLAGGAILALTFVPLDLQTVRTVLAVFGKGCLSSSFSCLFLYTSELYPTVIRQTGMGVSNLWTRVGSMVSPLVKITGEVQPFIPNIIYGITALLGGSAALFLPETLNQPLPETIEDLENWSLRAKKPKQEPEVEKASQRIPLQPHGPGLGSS

[3] = molecular target: T2, hOAT1 (Homo sapiens, UniProt Q4U2R8); assay: Time course and uptake kinetics of 6-CF in HEK-OAT1 cells
T2 sequence (Q4U2R8 1-563): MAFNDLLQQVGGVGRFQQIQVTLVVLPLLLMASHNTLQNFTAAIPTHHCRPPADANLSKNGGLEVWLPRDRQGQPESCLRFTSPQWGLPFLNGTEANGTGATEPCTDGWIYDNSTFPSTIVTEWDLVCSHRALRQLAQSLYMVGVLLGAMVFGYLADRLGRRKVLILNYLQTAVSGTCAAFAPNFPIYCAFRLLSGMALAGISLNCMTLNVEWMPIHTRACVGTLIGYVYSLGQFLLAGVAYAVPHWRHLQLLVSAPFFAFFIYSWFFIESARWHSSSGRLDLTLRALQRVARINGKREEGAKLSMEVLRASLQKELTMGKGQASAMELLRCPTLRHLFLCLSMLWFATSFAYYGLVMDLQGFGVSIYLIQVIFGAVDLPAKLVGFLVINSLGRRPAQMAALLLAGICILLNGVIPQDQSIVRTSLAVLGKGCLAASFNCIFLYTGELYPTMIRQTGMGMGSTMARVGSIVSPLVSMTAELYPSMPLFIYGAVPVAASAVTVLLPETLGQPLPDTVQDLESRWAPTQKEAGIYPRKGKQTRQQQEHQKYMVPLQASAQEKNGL

[4] = substrate: O=C(O)c1ccc(C(=O)O)c(-c2c3ccc(=O)cc-3oc3cc(O)ccc23)c1; assay: cells, lysate or membranes; settings: pH 7.2
[5] = other: HEK-OAT1, 6-CF 0–500 μM, 4 min
[6] = other: HEK-OAT3, 6-CF 0–500 μM, 10 min

O=C(O)c1ccc(C(=O)O)c(-c2c3ccc(=O)cc-3oc3cc(O)ccc23)c1 [6-CF, 6-Carboxyfluorescein]
6-CF uptake, time course (replicates) ([1]; EV (run with HEK-OAT3), 0 min): -0.296 and -0.1638 and -0.3041
6-CF uptake, time course (replicates) ([1]; EV (run with HEK-OAT3), 1 min): 0.1864 and 0.1215 and 0.1926
6-CF uptake, time course (replicates) ([1]; EV (run with HEK-OAT3), 3 min): 1.062 and 1.738 and 0.6624
6-CF uptake, time course (replicates) ([1]; EV (run with HEK-OAT3), 5 min): 1.6 and 1.946 and 1.9
6-CF uptake, time course (replicates) ([1]; EV (run with HEK-OAT3), 7 min): 3.081 and 4.38 and 4.257
6-CF uptake, time course (replicates) ([1]; EV (run with HEK-OAT3), 10 min): 12.29 and 7.712 and 11.67
6-CF uptake, time course (replicates) ([1]; EV (run with HEK-OAT3), 15 min): 22.75 and 12.81 and 21.0992
6-CF uptake, time course (replicates) ([1]; EV (run with HEK-OAT3), 20 min): 40.6 and 70.13 and 42.87
6-CF uptake, time course (replicates) ([1]; HEK-EV (run with HEK-OAT1), 1 min): 2.029 and 2.127 and 1.449
6-CF uptake, time course (replicates) ([1]; HEK-EV (run with HEK-OAT1), 2 min): 3.517 and 2.496
6-CF uptake, time course (replicates) ([1]; HEK-EV (run with HEK-OAT1), 4 min): 3.274 and 1.899
6-CF uptake, time course (replicates) ([1]; HEK-EV (run with HEK-OAT1), 6 min): 2.9 and 5.179 and 2.231
6-CF uptake, time course (replicates) ([1]; HEK-EV (run with HEK-OAT1), 8 min): 2.807 and 2.226 and 2.134
6-CF uptake, time course (replicates) ([1]; HEK-EV (run with HEK-OAT1), 10 min): 6.849 and 3.392
6-CF uptake, time course (replicates) ([1]; HEK-EV (run with HEK-OAT1), 15 min): 2.156 and 2.367 and 2.88
6-CF uptake, time course (replicates) ([2]; HEK-OAT3, 0 min): -0.2934 and -0.3139 and -0.3557
6-CF uptake, saturation curve (replicates) ([2]; HEK-OAT3, 6-CF 0.4882813 uM): 0.3918 and 0.3329 and 0.4388
6-CF uptake, saturation curve (replicates) ([2]; HEK-OAT3, 6-CF 0.9765625 uM): 0.698 and 0.5037 and 0.6877
6-CF uptake, saturation curve (replicates) ([2]; HEK-OAT3, 6-CF 1.953125 uM): 1.795 and 1.575 and 1.458
6-CF uptake, saturation curve (replicates) ([2]; HEK-OAT3, 6-CF 3.90625 uM): 4.35 and 4.472 and 4.585
6-CF uptake, saturation curve (replicates) ([2]; HEK-OAT3, 6-CF 7.8125 uM): 6.975 and 7.312 and 7.453
6-CF uptake, saturation curve (replicates) ([2]; HEK-OAT3, 6-CF 15.625 uM): 11.68 and 13.8 and 13.42
6-CF uptake, saturation curve (replicates) ([2]; HEK-OAT3, 6-CF 31.25 uM): 16.87 and 19.83 and 17.42
6-CF uptake, saturation curve (replicates) ([2]; HEK-OAT3, 6-CF 62.5 uM): 24.87 and 28.11 and 27.05
6-CF uptake, saturation curve (replicates) ([2]; HEK-OAT3, 6-CF 125 uM): 31.12 and 34.21 and 34.22
6-CF uptake, saturation curve (replicates) ([2]; HEK-OAT3, 6-CF 250 uM): 38.59 and 48.68 and 49.93
6-CF uptake, saturation curve (replicates) ([2]; HEK-OAT3, 6-CF 500 uM): 59.67 and 68.36 and 60.32
6-CF uptake, time course (replicates) ([2]; HEK-OAT3, 1 min): 15.96 and 14.63 and 12.89
6-CF uptake, time course (replicates) ([2]; HEK-OAT3, 3 min): 23.66 and 23.83 and 22.4238
6-CF uptake, time course (replicates) ([2]; HEK-OAT3, 5 min): 30.9 and 31.16 and 28.05
6-CF uptake, time course (replicates) ([2]; HEK-OAT3, 7 min): 39.99 and 36.19 and 41.91
6-CF uptake, time course (replicates) ([2]; HEK-OAT3, 10 min): 50.24 and 52.458 and 60.541
6-CF uptake, time course (replicates) ([2]; HEK-OAT3, 15 min): 52.72 and 56.05 and 66.23
6-CF uptake, time course (replicates) ([2]; HEK-OAT3, 20 min): 78 and 76.09 and 111.922
6-CF uptake, saturation curve (replicates) ([3]; HEK-OAT1, 6-CF 0.4882813 uM): 7.173 and 7.446 and 6.987
6-CF uptake, saturation curve (replicates) ([3]; HEK-OAT1, 6-CF 0.9765625 uM): 12.8274 and 13.23 and 13
6-CF uptake, saturation curve (replicates) ([3]; HEK-OAT1, 6-CF 1.953125 uM): 27.87 and 28.3406 and 28.05
6-CF uptake, saturation curve (replicates) ([3]; HEK-OAT1, 6-CF 3.90625 uM): 46.16 and 53.71 and 47.47
6-CF uptake, saturation curve (replicates) ([3]; HEK-OAT1, 6-CF 7.8125 uM): 70.1 and 79.19 and 68.4603
6-CF uptake, saturation curve (replicates) ([3]; HEK-OAT1, 6-CF 15.625 uM): 99.74 and 104.681 and 93.41
6-CF uptake, saturation curve (replicates) ([3]; HEK-OAT1, 6-CF 31.25 uM): 121.9009 and 125.5377 and 115.7964
6-CF uptake, saturation curve (replicates) ([3]; HEK-OAT1, 6-CF 62.5 uM): 137.2491 and 143.8246 and 138.2214
6-CF uptake, saturation curve (replicates) ([3]; HEK-OAT1, 6-CF 125 uM): 148.3736 and 150.9828 and 144.0527
6-CF uptake, saturation curve (replicates) ([3]; HEK-OAT1, 6-CF 250 uM): 164.0673 and 159.2171 and 152.7382
6-CF uptake, saturation curve (replicates) ([3]; HEK-OAT1, 6-CF 500 uM): 180.965 and 184.434 and 169.8854
6-CF uptake, time course (replicates) ([3]; HEK-OAT1, 1 min): 103.0408 and 111.2811 and 116.9642
6-CF uptake, time course (replicates) ([3]; HEK-OAT1, 2 min): 184.2101 and 188.6327 and 203.3025
6-CF uptake, time course (replicates) ([3]; HEK-OAT1, 4 min): 263.4748 and 273.8167 and 274.8526
6-CF uptake, time course (replicates) ([3]; HEK-OAT1, 6 min): 366.3584 and 347.2089 and 351.4604
6-CF uptake, time course (replicates) ([3]; HEK-OAT1, 8 min): 433.3665 and 398.0952 and 430.7222
6-CF uptake, time course (replicates) ([3]; HEK-OAT1, 10 min): 468.8556 and 433.6342 and 503.1246
6-CF uptake, time course (replicates) ([3]; HEK-OAT1, 15 min): 515.439 and 498.8523

B1: hOAT1 (Homo sapiens) (protein)
chain: MAFNDLLQQVGGVGRFQQIQVTLVVLPLLLMASHNTLQNFTAAIPTHHCRPPADANLSKNGGLEVWLPRDRQGQPESCLRFTSPQWGLPFLNGTEANGTGATEPCTDGWIYDNSTFPSTIVTEWDLVCSHRALRQLAQSLYMVGVLLGAMVFGYLADRLGRRKVLILNYLQTAVSGTCAAFAPNFPIYCAFRLLSGMALAGISLNCMTLNVEWMPIHTRACVGTLIGYVYSLGQFLLAGVAYAVPHWRHLQLLVSAPFFAFFIYSWFFIESARWHSSSGRLDLTLRALQRVARINGKREEGAKLSMEVLRASLQKELTMGKGQASAMELLRCPTLRHLFLCLSMLWFATSFAYYGLVMDLQGFGVSIYLIQVIFGAVDLPAKLVGFLVINSLGRRPAQMAALLLAGICILLNGVIPQDQSIVRTSLAVLGKGCLAASFNCIFLYTGELYPTMIRQTGMGMGSTMARVGSIVSPLVSMTAELYPSMPLFIYGAVPVAASAVTVLLPETLGQPLPDTVQDLESRWAPTQKEAGIYPRKGKQTRQQQEHQKYMVPLQASAQEKNGL
Km [4, 5]: 10.86 ± 0.64 µM
Vmax [4, 5]: 168.5 ± 2.27 pmol/mg protein/min

B2: hOAT3 (Homo sapiens) (protein)
chain: MTFSEILDRVGSMGHFQFLHVAILGLPILNMANHNLLQIFTAATPVHHCRPPHNASTGPWVLPMGPNGKPERCLRFVHPPNASLPNDTQRAMEPCLDGWVYNSTKDSIVTEWDLVCNSNKLKEMAQSIFMAGILIGGLVLGDLSDRFGRRPILTCSYLLLAASGSGAAFSPTFPIYMVFRFLCGFGISGITLSTVILNVEWVPTRMRAIMSTALGYCYTFGQFILPGLAYAIPQWRWLQLTVSIPFFVFFLSSWWTPESIRWLVLSGKSSKALKILRRVAVFNGKKEEGERLSLEELKLNLQKEISLAKAKYTASDLFRIPMLRRMTFCLSLAWFATGFAYYSLAMGVEEFGVNLYILQIIFGGVDVPAKFITILSLSYLGRHTTQAAALLLAGGAILALTFVPLDLQTVRTVLAVFGKGCLSSSFSCLFLYTSELYPTVIRQTGMGVSNLWTRVGSMVSPLVKITGEVQPFIPNIIYGITALLGGSAALFLPETLNQPLPETIEDLENWSLRAKKPKQEPEVEKASQRIPLQPHGPGLGSS
Km [4, 6]: 112.9 ± 14.24 µM
Vmax [4, 6]: 71.89 ± 3.42 pmol/mg protein/min
